Values of other authors, collected in article PMC8364686, “Safety, tolerability, pharmacokinetics and pharmacodynamics of single oral doses of BI 187004, an inhibitor of 11beta-hydroxysteroid dehydrogenase-1, in healthy male volunteers with overweight or obesity” (Clinical Diabetes and Endocrinology, 2021).
Read-outs that look alike come from different tables or passages of the source.

Assays:
[1] = system: 11beta-HSD1 in AT; details: single dose, cited from earlier work
[2] = system: 11beta-HSD1; details: cited from earlier work

CC(C)[C@]1(C)SC(=N[C@H]2C[C@@H]3CC[C@H]2C3)NC1=O [AMG 221]
11beta-HSD1 inhibition in AT ([1]; 24-h study duration): > 90%

CCCSc1nc(N2CCC[C@@H](CC(=O)O)C2)ccc1C(=O)NC1CCCCC1 [AZD4017]
Maximum decrease in urinary (aTHF + THF)/THE ratio ([2]; highest dose of 900 mg, after 9 days): 92%

C[C@@H](c1ccc(-c2ccn(C)c(=O)c2)cc1)N1CC[C@](CC(C)(C)O)(c2ccccc2)OC1=O [BI 135585]
11beta-HSD1 inhibition in AT ([1]; 24 h after dosing): 90%

N#Cc1ccc(-c2ccc(S(=O)(=O)Nc3cccc(N)n3)cc2)cc1 [PF-915275]
Maximum decrease in urinary (aTHF + THF)/THE ratio ([2]; after 14 days of treatment): 26%
